Test results taken from patent publication US11311014B2, “Crystalline forms of ethyl[3-[2-chloro-4-fluoro-5-(1-methyl-6-trifluoromethyl-2,4-dioxo-1,2,3,4-tetrahydropyrimidin-3-yl)phenoxy]-2-pyridyloxy]acetate” (BASF SE, priority 2017, dated 2022).

Tests used:
[1] = Stability of modifications suspended in solvent (conversion of crystal modification); type: physicochemical
Method: (§1) Studies on the Stability of the modifications of compound of formula (I)
A mixture of forms A and B was suspended in ethanol at 25° C.
Form C.II.1 (consisting of 30 wt. % of form A and 70 wt. % of form D) was suspended in ethanol at 25° C.
Form C.II.1 (consisting of 30 wt. % of form A and 70 wt. % of form D) was suspended in iso-propanol at 25° C.
Form CII.1 (consisting of 30 wt. % of form A and 70 wt. % of form D) was suspended in iso-propanol at 50° C.

[2] = Storage stability of dry powder at room temperature (conversion of crystal modification); type: physicochemical; conditions: about 6 weeks
From the text: as §1

## CCOC(=O)COc1ncccc1Oc1cc(-n2c(=O)cc(C(F)(F)F)n(C)c2=O)c(F)cc1Cl [Form C.II.1]
[1]; suspended in ethanol at 25° C., after 7 days
  Stability of the modification: phase conversion in suspension: converted into form A
[1]; suspended in iso-propanol at 25° C., after 7 days
  Stability of the modification: phase conversion in suspension: converted into form A
[1]; suspended in iso-propanol at 50° C., after 7 days
  Stability of the modification: phase conversion in suspension: converted into form A

## CCOC(=O)COc1ncccc1Oc1cc(-n2c(=O)cc(C(F)(F)F)n(C)c2=O)c(F)cc1Cl [mixture of forms A and B]
[1]; suspended in ethanol at 25° C., after 5 days
  Stability of the modification: phase conversion in suspension: converted into form A

## CCOC(=O)COc1ncccc1Oc1cc(-n2c(=O)cc(C(F)(F)F)n(C)c2=O)c(F)cc1Cl [form B, ethyl[3-[2-chloro-4-fluoro-5-(1-methyl-6-trifluoromethyl-2,4-dioxo-1,2,3,4-tetrahydropyrimidin-3-yl)phenoxy]-2-pyridyloxy]acetate]
[2]
  Stability of the modification: phase conversion during storage: converts partially into form A
